Patent US20060188937A1, “G-protein estrogen membrane receptor” (Board Of Regents, The University Of Texas System, priority 2004, published 2006)
Entries after “also recorded” stand apart in the source; their conditions may differ.

Key:
GPR30 [1] = target: T1, GPR30 (Homo sapiens, UniProt Q99527); details: for affinity for the receptor in competitive binding: concentrations up to 1 μM; for binding affinities to the receptor: summary statement
SKBR3 cells [2] = experiment: Hormone pretreatment of SKBR3 cells, E2 receptor binding to plasma membranes; type: cell-based, human; details: 200 nm for 16 hrs in FBS-free media
GPR30 [3] = target: T1, GPR30; experiment: Competitive binding against [3H]E2, plasma membranes of HEK293 cells transfected with GPR30
GPR30 [4] = target: T1, GPR30; experiment: cAMP measurement (adenylyl cyclase activity), HEK293 cells transfected with GPR30; type: biochemical; details: for cAMP production / activation of stimulatory G-protein and upregulation of adenylyl cyclase activity: transfected cells; for cAMP production: FIG. 3F, 100 nm, 20 min; for activation of stimulatory G-protein and upregulation of adenylyl cyclase activity: discussion summary
wild-type GPR30 = target: T2, wild-type GPR30 (Homo sapiens, UniProt Q99527); experiment: [35S]GTPγS binding to membranes of SKBR3 cells; type: biochemical; details: for specific [35S]GTPγS binding (activation of G-proteins): 100 nm, SKBR3 cell membranes; for agonist action on GPR30 / mER-mediated pathway: summary statements
T2 construct: membranes of SKBR3 cells expressing wild-type GPR30; endogenous in cells; host or cells: SKBR3 (human breast cancer cells, ATCC)
Procedure: [^35S]GTPγ-S binding to cell membranes. Binding of [^35S]GTPγ-S to plasma membranes (˜10 μg protein) was assayed following the procedure of Liu and Dillon (30) with few modifications. […] Nonspecific binding was determined by addition of 100 μM GTPγ-S. At the end of the incubation period 100 μl aliquots were filtered through Whatman GF/B glass fiber filters, followed by several washes and subsequent scintillation counting.

[5] = test system: untransfected HEK293 cells; experiment: cAMP measurement, untransfected HEK293 cells; type: biochemical, human; details: 15 min treatment with 200 nm
SKBR3 cells [6] = details: cited from earlier work
[7] = test system: untransfected HEK293 cells; experiment: [35S]GTPγS binding to membranes of untransfected HEK293 cells; type: biochemical, human; details: 100 nm
Procedure: [^35S]GTPγ-S binding to cell membranes. Binding of [^35S]GTPγ-S to plasma membranes (˜10 μg protein) was assayed following the procedure of Liu and Dillon (30) with few modifications. Plasma membranes were incubated with 10 μM GDP and 0.5 nm [^35S]GTPγ-S (˜12,000 cpm, 1.0 Ci/mol) in […] Tris buffer ([…], 5 mM MgCl2, 1 mM CaCl2, 0.6 mM EDTA, 0.1% BSA, 50 mM Tris-HCl, pH 7.4) at 25° C. for 30 min in the presence of 100 nm of the test compounds. Nonspecific binding was determined by addition of 100 μM GTPγ-S. At the end of the incubation period 100 μl aliquots were filtered through Whatman GF/B glass fiber filters, followed by several washes and subsequent scintillation counting.

T2 sequence (Q99527 whole entry): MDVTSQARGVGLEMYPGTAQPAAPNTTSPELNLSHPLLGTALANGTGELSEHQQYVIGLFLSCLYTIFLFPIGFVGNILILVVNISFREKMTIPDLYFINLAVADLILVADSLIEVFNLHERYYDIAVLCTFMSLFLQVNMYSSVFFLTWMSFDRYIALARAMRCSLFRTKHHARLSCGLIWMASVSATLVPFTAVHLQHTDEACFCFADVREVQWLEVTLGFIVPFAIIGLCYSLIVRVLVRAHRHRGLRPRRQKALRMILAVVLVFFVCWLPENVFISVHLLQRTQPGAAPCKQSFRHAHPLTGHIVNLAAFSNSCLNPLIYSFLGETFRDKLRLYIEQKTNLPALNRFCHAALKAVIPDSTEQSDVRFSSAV
T1 sequence (Q99527 whole entry): as above

Molecule: CC(=O)[C@H]1CC[C@H]2[C@@H]3CCC4=CC(=O)CC[C@]4(C)[C@H]3CC[C@]12C [P4, progesterone]
- affinity for the receptor in competitive binding (GPR30 [1]; SKBR3 membranes): no affinity
- increase in receptor binding (SKBR3 cells [2]): 9 fold

Molecule: CC/C(=C(/CC)c1ccc(O)cc1)c1ccc(O)cc1 [diethystilbestrol, diethylstilbestrol]
- displacement of [3H]E2 (GPR30 [3]; concentrations up to 10 μM): failed to significantly displace

Molecule: C[C@]12CC[C@@H]3c4ccc(O)cc4CC[C@H]3[C@@H]1C[C@@H](O)[C@@H]2O [estriol]
- cAMP production (GPR30 [4]): did not alter cAMP production
- activation of stimulatory G-protein and upregulation of adenylyl cyclase activity (GPR30 [4]): inactive
- specific [35S]GTPγS binding (activation of G-proteins) (wild-type GPR30): failed to activate the G-proteins

Molecule: cholera toxin
- effect on estrogen-induced increase in cAMP concentrations (GPR30 [4]): blocked

Molecule: C[C@]12CC[C@H]3[C@@H](CCC4=CC(=O)CC[C@@]43C)[C@@H]1CC[C@@H]2O [testosterone]
- affinity for the receptor in competitive binding (GPR30 [1]; SKBR3 membranes): no affinity

Molecule: C[C@]12CC[C@@H]3c4ccc(O)cc4C[C@@H](CCCCCCCCC[S+]([O-])CCCC(F)(F)C(F)(F)F)[C@H]3[C@@H]1CC[C@@H]2O (stereo partly shown) [ICI 182, 780]
- binding affinity in competitive binding (GPR30 [3]): significant binding affinity
- relative binding affinity (RBA), % that of E2 (GPR30 [1]; SKBR3 membranes): approximately 10%
- decrease in RBA to GPR30 versus estradiol-17β (GPR30 [1]; discussion summary): only minor decreases
- binding affinities to the receptor (GPR30 [1]): high binding affinities
- adenylyl cyclase activity, increase in cAMP content (GPR30 [4]; transfected HEK293 cells, 15 min treatment with 200 nm): significantly increased
- cAMP production (GPR30 [4]): significantly increased cAMP
- adenylyl cyclase activity, increase in cAMP content [5]: not in untransfected cells
- agonist action on GPR30 / mER-mediated pathway (wild-type GPR30): estrogen agonists
- agonist action on GPR30 / mER-mediated pathway (wild-type GPR30; listed as ICI 182,780): mimic the actions of E2

Molecule: C[C@H]1CCCC(=O)CCC/C=C/c2cc(O)cc(O)c2C(=O)O1 [zearalonone, zearalenone]
- binding affinity in competitive binding (GPR30 [3]): significant binding affinity

Molecule: ClC(Cl)=C(c1ccc(Cl)cc1)c1ccccc1Cl [o,p′-DDE]
- binding affinity in competitive binding (GPR30 [3]): significant binding affinity
- displacement of [3H]-E2 binding (GPR30 [1]; SKBR3 membranes, concentrations 0.1-1 μM): significant displacement
- binding affinities to the receptor (GPR30 [1]): high binding affinities
- cAMP production (GPR30 [4]): significantly increased cAMP
- specific [35S]GTPγS binding (activation of G-proteins) (wild-type GPR30): significantly increased
- agonist action on GPR30 / mER-mediated pathway (wild-type GPR30): agonist; also recorded: mimic the actions of E2

Molecule: CC/C(=C(\c1ccccc1)c1ccc(OCCN(C)C)cc1)c1ccccc1 [tamoxifen]
- binding affinity in competitive binding (GPR30 [3]): significant binding affinity
- cAMP production (GPR30 [4]): significantly increased cAMP
- specific [35S]GTPγS binding (activation of G-proteins) (wild-type GPR30): significantly increased
- agonist action on GPR30 / mER-mediated pathway (wild-type GPR30): estrogen agonists; also recorded: mimic the actions of E2

Molecule: C[C@]12CC[C@@H]3c4ccc(O)cc4CC[C@H]3[C@@H]1CCC2=O [estrone]
- activation of stimulatory G-protein and upregulation of adenylyl cyclase activity (GPR30 [4]): inactive

Molecule: C[C@]12CC[C@@H]3c4ccc(O)cc4CC[C@H]3[C@@H]1CC[C@@H]2O [E2, 17β-estradiol]
- effective concentration (cAMP) previously shown (SKBR3 cells [6]): 1 nm
- specific [35S]GTPγS binding [7]: not to membranes of untransfected cells
- increase in receptor binding (SKBR3 cells [2]): 2.5 fold
- adenylyl cyclase activity, increase in cAMP content [5]: not in untransfected cells

Molecule: C[C@]12CCC(=O)C=C1CC[C@@H]1[C@@H]2[C@@H](O)C[C@@]2(C)[C@H]1CC[C@]2(O)C(=O)CO [cortisol]
- affinity for the receptor in competitive binding (GPR30 [1]; SKBR3 membranes): no affinity
